Tests used:
[1] = Half-lives of hydrolysis of the prodrugs in human serum
[2] = Half-lives of hydrolysis of the prodrugs in phosphate buffer at pH 7.4
[3] = physchem; settings: buffer, pH 7.4, Half-life of hydrolysis
[4] = pH 7.4, Half-life of hydrolysis, Buffer, phosphate buffer at ph 7.4
[5] = Half-life of hydrolysis, Serum (to mono), hydrolysis to mono
[6] = pH 7.4, Half-life of hydrolysis, Buffer (to mono), phosphate buffer at ph 7.4, hydrolysis to mono

Row | SMILES | half-life ([1]; Half-life of hydrolysis, Serum) [h] | half-life [2, 4] [h] | also measured
1 | COCCOCCOCC(=O)O[C@@H](C[C@H](Cc1ccccc1)NC(=O)[C@@H](NC(=O)N(C)Cc1csc(C(C)C)n1)C(C)C)[C@H](Cc1ccccc1)NC(=O)OCc1cncs1 | > 48 | > 96 | –
2 | CC(C)(C)OC(=O)COCC(=O)Nc1ccn(C2CCC(CO)O2)c(=O)n1 (stereo not drawn) | 5 | 16 | –
3 | CC(C)(C)OC(=O)COCC(=O)Nc1ccn(C2CCC(COC(=O)COCC(=O)OC(C)(C)C)O2)c(=O)n1 (stereo not drawn) | 0.173 | 6.2 | –
4 | COCCOCCOCC(=O)Oc1cc(/C=C\c2cc(OC)c(OC)c(OC)c2)ccc1OC | – | – | half-life [1]: 0.0333 h; half-life ([2]; pH 7.4): 10 h
5 | CC[C@@]1(OC(=O)COCC(=O)OCCOCCN(C)C)C(=O)OCc2c1cc1n(c2=O)Cc2cc3ccccc3nc2-1 | – | – | half-life [1]: 0.667 h; half-life ([2]; pH 7.4): 3 h
6 | CC(C)OC(=O)COCC(=O)OCC1CCC(n2ccc(N)nc2=O)O1 (stereo not drawn) | 0.0217 | 8.2 | –
7 | Nc1nc2c(ncn2COCCOC(=O)COCC(=O)O)c(=O)[nH]1 | 25 | 40 | –
8 | CC[C@@]1(OC(=O)COCCOCCOC)C(=O)OCc2c1cc1n(c2=O)Cc2cc3ccccc3nc2-1 | – | – | half-life [1]: 2 h; half-life ([2]; pH 7.4): 25 h
9 | Cc1cn(C2CC(N=[N+]=[N-])C(COC(=O)COCCOCCO)O2)c(=O)[nH]c1=O (stereo not drawn) | 0.333 ± 0.0167 | 21 | –
10 | CC[C@@]1(OC(=O)COCCOCCO)C(=O)OCc2c1cc1n(c2=O)Cc2cc3ccccc3nc2-1 | – | – | half-life [1]: 1.9 h; half-life ([2]; pH 7.4): 30 h
11 | CC(C)OC(=O)COCC(=O)Nc1ccn(C2CCC(CO)O2)c(=O)n1 (stereo not drawn) | 3.4 | 18 | –
12 | CN(C)CCOCCOC(=O)COCC(=O)OCC1CCC(n2cnc3c(=O)[nH]cnc32)O1 (stereo not drawn) | 0.05 | 3.5 | –
13 | CC(C)c1nc(CN(C)C(=O)N[C@H](C(=O)N[C@@H](Cc2ccccc2)C[C@H](OC(=O)COCC(=O)OCCOCCN(C)C)[C@H](Cc2ccccc2)NC(=O)OCc2cncs2)C(C)C)cs1 | 1 | 2.2 | –
14 | CC1(C)O[C@@H]2CC3C4CCC5=CC(=O)C=CC5(C)[C@@]4(F)[C@@H](O)CC3(C)[C@]2(C(=O)COC(=O)COCC(=O)O)O1 (stereo partly drawn) | – | – | half-life [3]: 1 h
15 | COc1ccc(/C=C\c2cc(OC)c(OC)c(OC)c2)cc1OC(=O)COCC(=O)O | – | – | half-life [1]: 0.0333 h; half-life ([2]; pH 7.4): 4 h
16 | COCCOCCOCC(=O)OCC(COC(=O)COCCOCCOC)OCn1cnc2c(=O)[nH]c(N)nc21 | 0.617 | 10 | –
17 | O=C(COCCOCCO)OCC1CCC(n2cnc3c(=O)[nH]cnc32)O1 (stereo not drawn) | 0.0917 ± 0.00833 | 46 | –

Row | SMILES | half-life ([1]; Half-life of hydrolysis, Serum) [h] | half-life [2, 4] [h] | also measured
18 | COC(=O)COCC(=O)O[C@@H](C[C@H](Cc1ccccc1)NC(=O)[C@@H](NC(=O)N(C)Cc1csc(C(C)C)n1)C(C)C)[C@H](Cc1ccccc1)NC(=O)OCc1cncs1 | 2.4 | 5.5 | –
19 | COCCOCC(=O)OCC(=O)[C@@]12OC(C)(C)O[C@@H]1CC1C3CCC4=CC(=O)C=CC4(C)[C@@]3(F)[C@@H](O)CC12C (stereo partly drawn) | – | – | half-life [3]: 15 h
20 | CC(C)(C)NC(=O)[C@@H]1[C@@H]2CCCC[C@@H]2CCN1C[C@@H](OC(=O)COCC(=O)OC(C)(C)C)[C@H](Cc1ccccc1)NC(=O)[C@H](CC(N)=O)NC(=O)c1ccc2ccccc2n1 | 20 | 10 | –
21 | O=C(O)COCC(=O)OCC1CCC(n2cnc3c(=O)[nH]cnc32)O1 (stereo not drawn) | 0.0667 ± 0.00833 | 9.4 ± 0.1 | –
22 | COCCOCCOCC(=O)OCn1cc(F)c(=O)n(COC(=O)COCCOCCOC)c1=O | – | – | half-life [1, 5]: 0.00833 h; half-life [2, 6]: 1.47 h
23 | CC(C)OC(=O)COCC(=O)Nc1ccn(C2CCC(COC(=O)COCC(=O)OC(C)C)O2)c(=O)n1 (stereo not drawn) | 0.162 | 5.6 | –
24 | CC[C@@]1(OC(=O)COCC(=O)OC)C(=O)OCc2c1cc1n(c2=O)Cc2cc3ccccc3nc2-1 | – | – | half-life [1]: 0.0333 h; half-life ([2]; pH 7.4): 6.1 h
25 | CC(C)c1nc(CN(C)C(=O)N[C@H](C(=O)N[C@@H](Cc2ccccc2)C[C@H](OC(=O)COCCOCCO)[C@H](Cc2ccccc2)NC(=O)OCc2cncs2)C(C)C)cs1 | 24 | 96 | –
26 | COCCOCC(=O)OCn1cc(F)c(=O)n(COC(=O)COCCOC)c1=O | – | – | half-life [1, 5]: 0.00333 h; half-life [2, 6]: 1.47 h
27 | CN(C)CCOC(=O)COCC(=O)O[C@H](CN1CC[C@H]2CCCC[C@H]2[C@H]1C(=O)NC(C)(C)C)[C@H](Cc1ccccc1)NC(=O)[C@H](CC(N)=O)NC(=O)c1ccc2ccccc2n1 | 35 | 10 | –
28 | CC(C)OC(=O)COCC(=O)OCC1CCC(n2cnc3c(=O)[nH]cnc32)O1 (stereo not drawn) | 0.0833 | 10 | –
29 | COC(=O)COCC(=O)Oc1cc(/C=C\c2cc(OC)c(OC)c(OC)c2)ccc1OC | – | – | half-life [1]: 0.0417 h; half-life ([2]; pH 7.4): > 48 h
30 | CC[C@@]1(OC(=O)COCC(=O)OCCN(C)C)C(=O)OCc2c1cc1n(c2=O)Cc2cc3ccccc3nc2-1 | – | – | half-life [1]: < 0.0167 h; half-life ([2]; pH 7.4): 0.0833 h
31 | Nc1nc2c(ncn2COCCOC(=O)COCC(=O)OCCOCn2cnc3c(=O)[nH]c(N)nc32)c(=O)[nH]1 | – | – | half-life ([1]; Half-life of hydrolysis, Serum, bis to mono): 4 h; half-life ([2]; pH 7.4, Half-life of hydrolysis, Buffer, bis to mono, phosphate buffer at ph 7.4, bis to mono): 10 h
32 | O=C(COCCOCCO)Nc1ccn(C2CCC(COC(=O)COCCOCCO)O2)c(=O)n1 (stereo not drawn) | – | – | half-life [1, 5]: 0.0833 ± 0.0167 h; half-life [2, 6]: 20 h
33 | COCCOCCOCC(=O)OCC(=O)[C@@]12OC(C)(C)O[C@@H]1CC1C3CCC4=CC(=O)C=CC4(C)[C@@]3(F)[C@@H](O)CC12C (stereo partly drawn) | – | – | half-life [3]: 12 h
34 | CC(C)c1nc(CN(C)C(=O)N[C@H](C(=O)N[C@@H](Cc2ccccc2)C[C@H](OC(=O)COCC(=O)O)[C@H](Cc2ccccc2)NC(=O)OCc2cncs2)C(C)C)cs1 | 40 | > 240 | –

The next lines start with results.

Row | half-life ([1]; Half-life of hydrolysis, Serum) [h] | half-life [2, 4] [h] | SMILES | also measured
35 | 0.1 | 1.47 | COCCOCC(=O)OCn1cc(F)c(=O)[nH]c1=O | –
36 | 4.5 | 2.5 | COC(=O)COCC(=O)O[C@H](CN1CC[C@H]2CCCC[C@H]2[C@H]1C(=O)NC(C)(C)C)[C@H](Cc1ccccc1)NC(=O)[C@H](CC(N)=O)NC(=O)c1ccc2ccccc2n1 | –
37 | 0.0167 | 22 | COCCOCCOCC(=O)OCCOCn1cnc2c(=O)[nH]c(N)nc21 | –
38 | 0.1 ± 0.00333 | 10 ± 0.5 | COC(=O)COCC(=O)OCC1CCC(n2ccc(N)nc2=O)O1 (stereo not drawn) | –
39 | 0.075 | 24 | COCCOCCOCC(=O)OCC1CCC(n2ccc(N)nc2=O)O1 (stereo not drawn) | –
40 | 10 | 5 | CC(C)OC(=O)COCC(=O)O[C@H](CN1CC[C@H]2CCCC[C@H]2[C@H]1C(=O)NC(C)(C)C)[C@H](Cc1ccccc1)NC(=O)[C@H](CC(N)=O)NC(=O)c1ccc2ccccc2n1 | –
41 | 0.583 ± 0.0833 | 14 ± 1 | COCCOCCOCC(=O)Nc1ccn(C2CCC(COC(=O)COCCOCCOC)O2)c(=O)n1 (stereo not drawn) | –
42 | 0.15 | 3.73 | COCCOCCOCC(=O)OCn1cc(F)c(=O)[nH]c1=O | –
43 | 0.2 | 26 | COCCOCCOCC(=O)OCC(CO)OCn1cnc2c(=O)[nH]c(N)nc21 (stereo not drawn) | –
44 | 2 | 26 | CC[C@@]1(OC(=O)COCCOC)C(=O)OCc2c1cc1n(c2=O)Cc2cc3ccccc3nc2-1 | –
45 | 0.0283 | 11 | CC(C)(C)OC(=O)COCC(=O)OCC1CCC(n2ccc(N)nc2=O)O1 (stereo not drawn) | –
46 | 0.123 | 8.5 | COc1ccc(/C=C\c2cc(OC)c(OC)c(OC)c2)cc1OC(=O)COCC(=O)OC(C)(C)C | –
47 | 0.06 ± 0.00167 | 13.3 ± 0.2 | COCCOCC(=O)OCC1OC(n2cc(C)c(=O)[nH]c2=O)CC1N=[N+]=[N-] (stereo not drawn) | –
48 | 25 | 7 | CN(C)CCOCCOC(=O)COCC(=O)O[C@H](CN1CC[C@H]2CCCC[C@H]2[C@H]1C(=O)NC(C)(C)C)[C@H](Cc1ccccc1)NC(=O)[C@H](CC(N)=O)NC(=O)c1ccc2ccccc2n1 | –
49 | 0.0167 | 7.28 | COCCOCCOCC(=O)OCn1c(=O)[nH]cc(F)c1=O | –
50 | 0.00833 | 9.1 | COCCOCC(=O)OCn1c(=O)[nH]cc(F)c1=O | –
51 | 6 ± 0.5 | 3.1 ± 0.1 | CC(C)(C)NC(=O)[C@@H]1[C@@H]2CCCC[C@@H]2CCN1C[C@@H](OC(=O)COCCOCCO)[C@H](Cc1ccccc1)NC(=O)[C@H](CC(N)=O)NC(=O)c1ccc2ccccc2n1 | –
52 | 0.167 ± 0.0167 | 30 | Nc1ccn(C2CCC(COC(=O)COCCOCCO)O2)c(=O)n1 (stereo not drawn) | –
53 | 0.0917 | 30 | COCCOCC(=O)OCCOCn1cnc2c(=O)[nH]c(N)nc21 | –
54 | 10 ± 1 | 3.5 ± 0.2 | COCCOCCOCC(=O)O[C@H](CN1CC[C@H]2CCCC[C@H]2[C@H]1C(=O)NC(C)(C)C)[C@H](Cc1ccccc1)NC(=O)[C@H](CC(N)=O)NC(=O)c1ccc2ccccc2n1 | –
55 | 16 ± 1 | 3.2 ± 0.5 | COCCOCC(=O)O[C@H](CN1CC[C@H]2CCCC[C@H]2[C@H]1C(=O)NC(C)(C)C)[C@H](Cc1ccccc1)NC(=O)[C@H](CC(N)=O)NC(=O)c1ccc2ccccc2n1 | –
56 | 0.0367 | 40 | COCCOCC(=O)OCC1CCC(n2cnc3c(=O)[nH]cnc32)O1 (stereo not drawn) | –
57 | 0.02 | 30 | COCCOCCOCC(=O)OCC1CCC(n2cnc3c(=O)[nH]cnc32)O1 (stereo not drawn) | –
58 | 0.4033 ± 0.00333 | 12.3 ± 0.1 | COCCOCCOCC(=O)OCC1OC(n2cc(C)c(=O)[nH]c2=O)CC1N=[N+]=[N-] (stereo not drawn) | –
59 | 24 | > 48 | COCCOCC(=O)O[C@@H](C[C@H](Cc1ccccc1)NC(=O)[C@@H](NC(=O)N(C)Cc1csc(C(C)C)n1)C(C)C)[C@H](Cc1ccccc1)NC(=O)OCc1cncs1 | –
60 | 0.045 | 16 | CC(C)(C)OC(=O)COCC(=O)OCCOCn1cnc2c(=O)[nH]c(N)nc21 | –
